Here are results for 2 molecules from PMC4032192 (Journal of Medicinal Chemistry, 2014).

In the assay the target is rat nNOS (Rattus norvegicus, UniProt P29476). Briefly: oxyhemoglobin NO capture assay, rat nNOS. The assay is classed as biochemical.
rat nNOS, sequence (P29476 whole entry): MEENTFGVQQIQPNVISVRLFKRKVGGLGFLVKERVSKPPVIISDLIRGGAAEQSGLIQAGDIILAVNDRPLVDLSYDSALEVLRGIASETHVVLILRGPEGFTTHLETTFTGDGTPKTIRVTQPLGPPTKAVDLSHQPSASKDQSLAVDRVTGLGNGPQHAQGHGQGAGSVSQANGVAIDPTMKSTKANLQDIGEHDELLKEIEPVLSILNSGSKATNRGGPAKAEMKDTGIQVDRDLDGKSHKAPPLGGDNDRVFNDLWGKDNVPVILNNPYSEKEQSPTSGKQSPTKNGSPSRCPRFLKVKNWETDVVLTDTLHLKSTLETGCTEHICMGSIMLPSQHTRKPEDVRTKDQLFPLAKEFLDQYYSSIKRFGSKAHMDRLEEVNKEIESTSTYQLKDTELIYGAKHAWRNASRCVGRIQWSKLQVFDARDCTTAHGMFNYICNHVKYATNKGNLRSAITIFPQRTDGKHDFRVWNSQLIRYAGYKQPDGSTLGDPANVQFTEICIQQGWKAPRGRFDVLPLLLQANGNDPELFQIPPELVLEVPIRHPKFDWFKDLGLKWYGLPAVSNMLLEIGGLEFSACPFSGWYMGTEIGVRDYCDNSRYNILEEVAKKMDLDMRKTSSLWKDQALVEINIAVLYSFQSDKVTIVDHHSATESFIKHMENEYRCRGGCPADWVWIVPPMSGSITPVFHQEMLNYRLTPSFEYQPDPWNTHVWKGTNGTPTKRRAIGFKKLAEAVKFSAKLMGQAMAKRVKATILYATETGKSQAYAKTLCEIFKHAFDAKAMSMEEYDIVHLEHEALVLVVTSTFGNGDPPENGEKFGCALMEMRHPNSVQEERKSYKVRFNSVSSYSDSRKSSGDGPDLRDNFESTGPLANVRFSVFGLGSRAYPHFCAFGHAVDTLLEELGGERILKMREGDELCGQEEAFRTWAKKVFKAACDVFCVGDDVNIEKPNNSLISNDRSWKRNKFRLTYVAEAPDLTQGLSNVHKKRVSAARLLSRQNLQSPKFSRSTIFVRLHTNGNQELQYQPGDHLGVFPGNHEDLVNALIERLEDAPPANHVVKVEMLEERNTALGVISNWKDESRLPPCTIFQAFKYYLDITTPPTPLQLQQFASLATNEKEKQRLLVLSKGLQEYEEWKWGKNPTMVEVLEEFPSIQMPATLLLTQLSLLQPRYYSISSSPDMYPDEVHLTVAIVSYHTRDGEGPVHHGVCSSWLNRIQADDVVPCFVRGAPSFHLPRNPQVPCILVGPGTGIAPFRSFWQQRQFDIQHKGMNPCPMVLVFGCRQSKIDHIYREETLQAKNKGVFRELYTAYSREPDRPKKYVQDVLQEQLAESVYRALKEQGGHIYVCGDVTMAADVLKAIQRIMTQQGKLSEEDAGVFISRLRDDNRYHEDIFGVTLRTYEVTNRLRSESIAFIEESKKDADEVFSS

For `Cc1cc(N)nc(CCc2cccc(C(O)Cc3cc(C)cc(N)n3)c2)c1` (centres unmarked) [Compound 4], the Ki is approximately 100 nM.
As to `Cc1cc(N)nc(CCc2cccc([C@H](N)Cc3cc(C)cc(N)n3)c2)c1` [Compound 3R, (R)-6-(2-Amino-2-(3-(2-(6-amino-4-methylpyridin-2-yl)ethyl)phenyl)ethyl)-4-methylpyridin-2-amine], the Ki is approximately 100 nM.
